Assay results reported in US11376302B2, “Methods for treating depression and major depressive disorder” (priority 2017, dated 2022).
Entries after “also recorded” stand apart in the source; their conditions may differ.

What was measured:
[1] = tested on: global protein synthesis in the hippocampus; experiment: SUnSET measurement of global protein synthesis in brain tissue after injection; type: in vivo, mouse
Description: Protein synthesis was measured by the SUnSET method. After pharmacological manipulation, mice were sacrificed by cervical dislocation, brains were removed, and the hippocampi were rapidly dissected, immersed in liquid nitrogen, and stored at −80° C. until further use. Hippocampi were homogenized using 20 strokes of a pre-chilled glass homogenizer with 600 μl of lysis buffer containing 50 mM Tris, pH 7.8, 240 mM KCl, 10 mM MgCl2, 250 mM D-sucrose, 2% Triton X-100, 20 μg/ml emetine, 5 mM DTT, 100 U/ml Rnasin (Promega), and protease inhibitor mixture without EDTA (Roche). Samples were centrifuged for 5 min at 16,100 g at 4° C. and supernatant was incubated with 100 g/ml puromycin for 10 min at 4° C. An equal volume of 2×SDS sample buffer (10% glycerol, 5% β-mercaptoethanol, 4% SDS, 120 mM Tris-HCl, pH 6.8) was added to the samples and then boiled for 10 min at 100° C. Protein concentrations were determined using the BCA protein assay (Thermo), and samples were stored at −20° C. until further use. Puromycin incorporation was detected by western blotting using 12D10 antibody for puromycin (1:1000, Millipore).

mice [2] = experiment: Tail suspension test (TST); type: in vivo, mouse; conditions: C57BL/6 mice, Tatcont then ketamine, test 24 hours later
Description: Custom made clear hollow cylinders (4 cm length, 1.2 cm inner diameter, 1 g) from polycarbonate tubing were placed around the tails of mice to prevent tail climbing behavior. Tape was adhered to the tails of mice on one end, and the other end of the tape was adhered to a custom designed chamber with a white background. Mice were video recorded for 6 minute and the entire 6 minute session was scored for immobility. Total immobility time (seconds) is shown in the results.

mice [3] = experiment: Forced swim test (FST); type: in vivo, mouse
Description: After receiving treatments mice were subjected to FST. Briefly, mice were introduced into a transparent glass beaker (26 cm×18 cm) containing 4 liters deep water at 24° C. and were video-recorded for 6 minutes. The last 4 min were scored for immobility. Total immobility time (in seconds) is shown in the results.

[4] = cited from earlier work
mice [5] = experiment: Novelty suppressed feeding (NSF) test; type: in vivo, mouse; conditions: C57BL/6 mice, ketamine injection
Description: Novelty Suppressed Feeding (NSF)
After receiving the treatments mice were subjected to NSF. Briefly, mice were food deprived for 14 h and then placed in a temporary home cage for 30 min. During the test, mice were placed in a square arena 50×50 cm with bright room light. A food pellet was placed in the center of an open field. Each trial was 10 min in duration. Animal behavior was recorded, and latency to feeding (s) was measured.

SMILES | protein synthesis ([1]; anisomycin 120 mg/kg b.w.) | ketamine-induced protein synthesis ([1]; anisomycin 120 mg/kg b.w. with ketamine) | immobility time in the TST (mice [2]) | immobility time in the FST (mice [3]; C57BL/6 mice, Tatcont then ketamine, test 24 hours later) | immobility time in the forced swim test (mice [3]; C57BL/6 mice, ketamine IP (5 mg per kg b.w. in Example 1), short-term test) | immobility time in the FST (mice [3]; WT littermates, 30 minutes after ketamine) | immobility time in FST (mice [3]; WT mice, 24 hours after ketamine injection) | immobility time in the FST (mice [3]; eEF2K-KO mice, 30 minutes after ketamine) | immobility time in FST (mice [3]; eEF2K-KO mice, 24 hours after injection) | immobility time in FST (mice [3]; ketamine 5 mg/kg b.w., FST 24 hours later, C57BL/6 mice) | immobility time in FST (mice [3]; ketamine 10 mg/kg b.w., FST 24 hours later, C57BL/6 mice) | persistence of antidepressant effect ([4]; human patients, single intravenous administration) | reduction of depression in human patients ([4]; single intravenous administration) | side effects of infusions in humans ([4]; single or repeated infusions, lasting a few minutes to hours) | latency to feeding in the novelty suppressed feeding test (mice [5])
COc1ccc(C[C@H]2NC[C@H](O)[C@H]2OC(C)=O)cc1 [anisomycin] | blocked protein synthesis | blocked | – | – | – | – | – | – | – | – | – | – | – | – | –
CNC1(c2ccccc2Cl)CCCCC1=O (stereo not drawn) [ketamine] | – | – | shorter immobility time | shorter immobility time | reduced the immobility time; also recorded: shorter immobility time | reduced the immobility time | reduced immobility time | no difference in immobility | no difference | shorter immobility time | shorter immobility time | persists for many hours to days | sufficient to reduce depression | acute dissociative and psychotomimetic effects | reduced the latency to feeding
